From patent publication US12448399B2, “Cereblon-based KRAS degrading PROTACs and uses related thereto” (Arvinas Operations, Inc., priority 2023, dated 2025)

Biological target: T1, KRas-G12D (Homo sapiens, UniProt P01116, G12D)
T1 construct: insert the HiBiT tag onto the N-terminus of one or more of the endogenous KRas alleles; host or cells: AsPC-1 HiBiT-KRasG12D knock-in clone (one tagged allele, two untagged KRasG12D alleles)
Experiment: HiBiT Degradation Assay (G12D), AsPC-1 HiBiT-KRasG12D cells, 24 hr
Type: cell-based
Details: for Dmax: ASPC1, AsPC-1 cells, maximum degradation observed; for DC50: AsPC-1 cells
Procedure, shortened: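 Degradation was read after 24 hr compound exposure (0.5% DMSO, 37° C) by Nano-Glo HiBiT lytic luminescence in AsPC-1 cells carrying a HiBiT tag on one of three KRasG12D alleles. Signal relative to DMSO gave DC50 and Dmax by 4-parameter fit; alamar blue fluorescence monitored cytotoxicity.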

T1 sequence (P01116 1-188 isoform P01116-2 G12D): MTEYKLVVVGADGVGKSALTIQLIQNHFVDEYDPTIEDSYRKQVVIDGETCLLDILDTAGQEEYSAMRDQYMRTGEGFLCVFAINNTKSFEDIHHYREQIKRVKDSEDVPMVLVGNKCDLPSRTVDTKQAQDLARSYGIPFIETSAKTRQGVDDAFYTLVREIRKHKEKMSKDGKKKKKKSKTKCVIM

Row | SMILES | Dmax [%] | DC50 [µM]
1 | CCc1cccc2cc(O)cc(-c3ncc4c(N5CC6CCC(C5)N6)nc(OC[C@@H]5C[C@@H](OC6CCN(CC7CCN(c8cccc9c8CN(C8CCC(=O)NC8=O)C9=O)CC7)CC6)CN5C)nc4c3F)c12 (stereo partly drawn) [Compound 139, 3-(4-{4-[(4-{[(3R,5S)-5-{[(4-{3,8-diazabicyclo[3.2.1]octan-3-yl}-7-(8-ethyl-3-hydroxynaphthalen-1-yl)-8-fluoropyrido[4,3-d]pyrimidin-2-yl)oxy]methyl}-1-methylpyrrolidin-3-yl]oxy}piperidin-1-yl)methyl]piperidin-1-yl}-1-oxo-2,3-dihydro-1H-isoindol-2-yl)piperidine-2,6-dione] | > 70 | < 5.1
2 | C#Cc1c(F)ccc2cc(O)cc(-c3ncc4c(N5CC6CCC(C5)N6)nc(OCCN5CCC(CN6CC7(CCN(c8cccc9c8CN(C8CCC(=O)NC8=O)C9=O)CC7)C6)CC5)nc4c3F)c12 (stereo not shown) [Compound 140, 3-(4-{2-[(1-{2-[(4-{3,8-diazabicyclo[3.2.1]octan-3-yl}-7-(8-ethynyl-7-fluoro-3-hydroxynaphthalen-1-yl)-8-fluoropyrido[4,3-d]pyrimidin-2-yl)oxy]ethyl}piperidin-4-yl)methyl]-2,7-diazaspiro[3.5]nonan-7-yl}-1-oxo-2,3-dihydro-1H-isoindol-2-yl)piperidine-2,6-dione] |  | 0.25 to 1
3 | CCc1cccc2cc(O)cc(-c3ncc4c(N5CC6CCC(C5)N6)nc(OCCN5CCC6(CC5)CN(c5cccc7c5CN(C5CCC(=O)NC5=O)C7=O)C6)nc4c3F)c12 (stereo not shown) [Compound 141] |  | > 1
4 | O=C1CCC(N2Cc3c(ccc(N4CCC(CN5CCC(CC6CCN(CCOc7nc(N8CC9CCC(C8)N9)c8cnc(-c9cc(O)cc(Cl)c9C9CC9)c(F)c8n7)CC6)CC5)CC4)c3F)C2=O)C(=O)N1 (stereo not shown) [Compound 142] | > 70 | < 5.1
5 | C#Cc1c(F)ccc2cccc(-c3ncc4c(N5CC6CCC(C5)N6)nc(OC[C@]56CCCN5[C@H](CN5CCN(CC7CCN(c8ccc9c(c8)CN(C8CCC(=O)NC8=O)C9=O)CC7)CC5)CC6)nc4c3F)c12 (stereo partly shown) [Compound 143] |  | < 5.1
6 | C#Cc1c(F)ccc2cccc(-c3ncc4c(N5CC6CCC(C5)N6)nc(OC[C@@H]5C[C@@H](OC6CCN(CC7CCN(c8ccc9c(c8)CN(C8CCC(=O)NC8=O)C9=O)CC7)CC6)CN5C)nc4c3F)c12 (stereo partly shown) [Compound 144] |  | < 5.1
7 | C#Cc1c(F)ccc2cccc(-c3ncc4c(N5CC6CCC(C5)N6)nc(OC[C@]56CCCN5[C@H](CN5CCN(c7ccc8c(c7)CN(C7CCC(=O)NC7=O)C8=O)CC5)CC6)nc4c3F)c12 (stereo partly shown) [Compound 145] | > 70 | 0.1 to 5.25
8 | C#Cc1c(F)ccc2cccc(-c3ncc4c(N5CC6CCC(C5)N6)nc(OC[C@@]56CCCN5[C@H](CN5CCN(c7ccc8c(c7)CN(C7CCC(=O)NC7=O)C8=O)CC5)CC6)nc4c3F)c12 (stereo partly shown) [Compound 146] |  | 0.25 to 1
9 | C#Cc1c(F)ccc2cccc(-c3ncc4c(N5CC6CCC(C5)N6)nc(OC[C@@]56CCCN5[C@H](CN5CCN(CC7CCN(c8ccc9c(c8)CN(C8CCC(=O)NC8=O)C9=O)CC7)CC5)CC6)nc4c3F)c12 (stereo partly shown) [Compound 147] | > 70 | < 5.1
10 | C#Cc1c(F)ccc2cc(O)cc(-c3ncc4c(N5CC6CCC(C5)N6)nc(OCCN5CCC(CN6CCN(CC7CCN(c8cc(C)c9c(c8F)CN(C8CCC(=O)NC8=O)C9=O)CC7)CC6)CC5)nc4c3F)c12 (stereo not shown) [Compound 148, 3-{5-[4-({4-[(1-{2-[(4-{3,8-diazabicyclo[3.2.1]octan-3-yl}-7-(8-ethynyl-7-fluoro-3-hydroxynaphthalen-1-yl)-8-fluoropyrido[4,3-d]pyrimidin-2-yl)oxy]ethyl}piperidin-4-yl)methyl]piperazin-1-yl}methyl)piperidin-1-yl]-4-fluoro-7-methyl-1-oxo-2,3-dihydro-1H-isoindol-2-yl}piperidine-2,6-dione] | > 70 | < 5.1
11 | C#Cc1c(F)ccc2cc(O)cc(-c3ncc4c(N5CC6CCC(C5)N6)nc(OCCN5CCC(CC6CCN(CC7CCN(c8cc(C)c9c(c8F)CN(C8CCC(=O)NC8=O)C9=O)CC7)CC6)CC5)nc4c3F)c12 (stereo not shown) [Compound 149, 3-{5-[4-({4-[(1-{2-[(4-{3,8-diazabicyclo[3.2.1]octan-3-yl}-7-(8-ethynyl-7-fluoro-3-hydroxynaphthalen-1-yl)-8-fluoropyrido[4,3-d]pyrimidin-2-yl)oxy]ethyl}piperidin-4-yl)methyl]piperidin-1-yl}methyl)piperidin-1-yl]-4-fluoro-7-methyl-1-oxo-2,3-dihydro-1H-isoindol-2-yl}piperidine-2,6-dione] | > 70 | < 5.1
12 | C#Cc1c(F)ccc2cc(O)cc(-c3ncc4c(N5CC6CCC(C5)N6)nc(OCCN5CCC6(CC5)CN(CC5CCN(c7cc(C)c8c(c7F)CN(C7CCC(=O)NC7=O)C8=O)CC5)C6)nc4c3F)c12 (stereo not shown) [Compound 150] |  | < 5.1
13 | C#Cc1c(F)ccc2cc(O)cc(-c3ncc4c(N5CC6CCC(C5)N6)nc(OC[C@@H]5C[C@@H](OC6CCN(CC7CCN(c8cc(C)c9c(c8F)CN(C8CCC(=O)NC8=O)C9=O)CC7)CC6)CN5C)nc4c3F)c12 (stereo partly drawn) [Compound 151, 3-(5-{4-[(4-{[(3R,5S)-5-{[(4-{3,8-diazabicyclo[3.2.1]octan-3-yl}-7-(8-ethynyl-7-fluoro-3-hydroxynaphthalen-1-yl)-8-fluoropyrido[4,3-d]pyrimidin-2-yl)oxy]methyl}-1-methylpyrrolidin-3-yl]oxy}piperidin-1-yl)methyl]piperidin-1-yl}-4-fluoro-7-methyl-1-oxo-2,3-dihydro-1H-isoindol-2-yl)piperidine-2,6-dione] | > 70 | < 5.1
14 | C#Cc1c(F)ccc2cc(O)cc(-c3ccc4c(N5CC6CCC(C5)N6)nc(OCCN5CCC(CC6CCN(CC7CCN(c8ccc9c(c8F)CN(C8CCC(=O)NC8=O)C9=O)CC7)CC6)CC5)nc4c3F)c12 (stereo not shown) [Compound 152] |  | < 5.1
15 | C#Cc1c(F)ccc2cc(O)cc(-c3ncc4c(N5CC6CCC(C5)N6)nc(OCCN5CCC6(CC5)CCN(CC5CCN(c7cc(C)c8c(c7F)CN(C7CCC(=O)NC7=O)C8=O)CC5)CC6)nc4c3F)c12 (stereo not shown) [Compound 153, 3-(5-{4-[(9-{2-[(4-{3,8-diazabicyclo[3.2.1]octan-3-yl}-7-(8-ethynyl-7-fluoro-3-hydroxynaphthalen-1-yl)-8-fluoropyrido[4,3-d]pyrimidin-2-yl)oxy]ethyl}-3,9-diazaspiro[5.5]undecan-3-yl)methyl]piperidin-1-yl}-4-fluoro-7-methyl-1-oxo-2,3-dihydro-1H-isoindol-2-yl)piperidine-2,6-dione] | > 70 | < 5.1
16 | C#Cc1c(F)ccc2cc(O)cc(-c3ncc4c(N5CC6CCC(C5)N6)nc(OCCN5CCC(CN6CC7(CCN(c8cc(C)c9c(c8F)CN(C8CCC(=O)NC8=O)C9=O)CC7)C6)CC5)nc4c3F)c12 (stereo not shown) [Compound 154, 3-(5-{2-[(1-{2-[(4-{3,8-diazabicyclo[3.2.1]octan-3-yl}-7-(8-ethynyl-7-fluoro-3-hydroxynaphthalen-1-yl)-8-fluoropyrido[4,3-d]pyrimidin-2-yl)oxy]ethyl}piperidin-4-yl)methyl]-2,7-diazaspiro[3.5]nonan-7-yl}-4-fluoro-7-methyl-1-oxo-2,3-dihydro-1H-isoindol-2-yl)piperidine-2,6-dione] | > 70 | < 5.1
17 | C#Cc1c(F)ccc2cccc(-c3ncc4c(N5CC6CCC(C5)N6)nc(OCCN5CCC(CN6CC7(CCN(c8ccc9c(c8F)CN(C8CCC(=O)NC8=O)C9=O)CC7)C6)CC5)nc4c3F)c12 (stereo not shown) [Compound 155] |  | > 1
18 | C#Cc1c(F)ccc2cccc(-c3ncc4c(N5CC6CCC(C5)N6)nc(OCCN5CCC6(CC5)CCN(CC5CCN(c7ccc8c(c7F)CN(C7CCC(=O)NC7=O)C8=O)CC5)CC6)nc4c3F)c12 (stereo not shown) [Compound 156] |  | > 1
19 | C#Cc1c(F)ccc2cccc(-c3ncc4c(N5CC6CCC(C5)N6)nc(OCCN5CCC(CC6CCN(CC7CCN(c8cccc9c8CN(C8CCC(=O)NC8=O)C9=O)CC7)CC6)CC5)nc4c3F)c12 (stereo not shown) [Compound 157] |  | > 1
20 | CCc1cccc2c(F)c(O)cc(-c3ncc4c(N5CC6CCC(C5)N6)nc(OCCN5CCC(CC6CCN(c7cccc8c7CN(C7CCC(=O)NC7=O)C8=O)CC6)CC5)nc4c3F)c12 (stereo not shown) [Compound 158] | ≤ 25 | > 1
21 | C#Cc1c(F)ccc2cc(O)cc(-c3ncc4c(N5CC6CCC(C5)N6)nc(OCCN5CCC(CN6CCN(CC7CCN(c8ccc9c(c8F)n(C(C)C)c(=O)n9C8CCC(=O)NC8=O)CC7)CC6)CC5)nc4c3F)c12 (stereo not shown) [Compound 159, 3-{5-[4-({4-[(1-{2-[(4-{3,8-diazabicyclo[3.2.1]octan-3-yl}-7-(8-ethynyl-7-fluoro-3-hydroxynaphthalen-1-yl)-8-fluoropyrido[4,3-d]pyrimidin-2-yl)oxy]ethyl}piperidin-4-yl)methyl]piperazin-1-yl}methyl)piperidin-1-yl]-4-fluoro-2-oxo-3-(propan-2-yl)-2,3-dihydro-1H-1,3-benzodiazol-1-yl}piperidine-2,6-dione] | > 70 | < 5.1
22 | C#Cc1c(F)ccc2cc(O)cc(-c3ncc4c(N5CC6CCC(C5)N6)nc(OCCN5CCC(C)(CN6CCN(CC7CCN(c8ccc9c(c8)n(C)c(=O)n9C8CCC(=O)NC8=O)CC7)CC6)CC5)nc4c3F)c12 (stereo not shown) [Compound 160, 3-{5-[4-({4-[(1-{2-[(4-{3,8-diazabicyclo[3.2.1]octan-3-yl}-7-(8-ethynyl-7-fluoro-3-hydroxynaphthalen-1-yl)-8-fluoropyrido[4,3-d]pyrimidin-2-yl)oxy]ethyl}-4-methylpiperidin-4-yl)methyl]piperazin-1-yl}methyl)piperidin-1-yl]-3-methyl-2-oxo-2,3-dihydro-1H-1,3-benzodiazol-1-yl}piperidine-2,6-dione] | > 70 | < 5.1
